Data on 2 compounds can be found in patent US20240207282A1, “METHOD OF INCREASING CHAPERONE MEDIATED AUTOPHAGY BY STABILIZING THE INTERACTION OF RETINOIC ACID RECEPTOR-ALPHA AND AN INHIBITOR” (ALBERT EINSTEIN COLLEGE OF MEDICINE, priority 2021, published 2024).

By half-life is commonly meant the time in which the quantity being followed falls by half.

Data set [1] relates to NIH3T3 cells. To be noted: previously reported; cited from earlier work.
A short description of data set [2]: Pharmacokinetics in mice (plasma and brain). Type of data set: in vivo, mouse. To be noted: mice; for brain to plasma ratio: i.v. or p.o. How it is done: ICR (CD-1) male mice were fasted at least three hours and water was available ad libitum before the study. Animals were housed in a controlled environment, target conditions: temperature 18 to 29° C., relative humidity 30 to 70%. Temperature and relative humidity was monitored daily. An electronic time controlled lighting system was used to provide a 12 hr light/12 hr dark cycle. 3 mice for each indicated time point were administered 30 mg/Kg CA39 or CA77 by oral gavage or 1 mg/Kg CA39 or CA77 by intravenous injection using 30% PEG-400, 65% D5W (5% dextrose in water), 5% Tween-80 vehicle. Mice were sacrificed, and brain samples were harvested at 0 hr, 0.25 hr, 0.5 hr, 1 hr, 2 hr, 4 hr, 8 hr, 24 hr, and analyzed for CA39 or CA77 levels using LC-MS/MS. Pharmacokinetics parameters were calculated using Phoenix WinNonlin 6.3. Experiments performed at SIMM-SERVIER joint Biopharmacy Laboratory.

The next data set deals with CMA network. Briefly: Comparative transcriptomic analysis / qPCR of CMA network. It is filed as cell-based, mouse. The settings on record: compared to AR7. The protocol: mRNA-qPCR: RNA was extracted from individual retinas. Total RNA from retinas was extracted using TRIzol Reagent (Invitrogen), and reverse transcription performed using the High-Capacity cDNA Reverse Transcription Kit (Applied Biosystems) according to the manufacturer's instructions. Quantitative real-time PCR was performed in a Light Cycler 480 Instrument (Roche) with Taqman Universal PCR Master Mix using Taqman assays (Life Tech-nologies). The following probes were used: Mm01184405_m1 (rhodopsin), F-5′-CTTAGCTTCTGGGATGC CCC-3′, R-5′-[…]-3′ (lamp2a) F-5′-AA GGACTCCTA TAGTGGG TGACGA-3′, R-5′-[…]-3′ (mouse β-actin).
Microarray: Total RNA of the treated cells was extracted using TRIzol (Invitrogen) and purified with RNeasy chromatography (Qiagen). Cy3-labeled RNA (0.6 μg) from each condition were hybridized to Agilent Mouse 8×60K. Data were processed using the oligo package and normalized using Robust Multiarray Average (RMA) method. Gene set was filtered to remove genes without Entrez or GO annotation (21912 genes out of 55682) and genes with an […]. The full microarray Gomez-Sintes et al. raw data will be deposited in GEO upon acceptance of the manuscript. Pathway analysis was performed using the STRING database ([…]).
CMA index was calculated using data set from Ly (J. Proteome Research (2016) 15: 1350-1359), Gao (2020), and Lane (2020). Briefly, each element of the CMA network was attributed a weight. As LAMP-2A is the rate limiting component of CMA, it was given a weight of 2. Every other element received a weight of 1. Then, every element was attributed direction score that is +1 or −1 based on the known effect of a given element on CMA activity. The score was then calculated as the weighted/directed average of expression counts of every element of the CMA network.

In another data set the test system is neuron-related cells. Nature of the data set: CMA activity, KFERQ-PS-Dendra reporter in neuron-related cells. Type of data set: cell-based, mouse. To be noted: for CMA activation: neuronal-related mouse cells. The protocol: Cells: NIH3T3 mouse fibroblasts and the N2a neuroblastoma cell line were obtained from the American Type Culture Collection and were validated by genomic PCR. Primary human fibroblasts (GM01651) were from Coriell Repository. All the cells lines were tested for mycoplasma contamination using DNA staining protocol with Hoechst 33258 dye. Knock-down of NCoR1 was done using lentiviral mediated shRNA (SHCLNG-NM_011308) from the Sigma Mission library following standard procedures. Efficiency of knock-down was tested by immunoblot. Cell viability was measured using the CellTiter-Blue kit (Promega) 24 h after the addition of the different stressors according to manufacturer's instructions.
CMA activity: Cells were transduced with lentivirus carrying the KFERQ-PS-Dendra reporter as before. Cells were photoactivated by exposure to a 3.5 mA (current constant) light emitting diode (LED: Norlux, 405 nm) for 3 min and then plated in glass-bottom 96 well plates. At the desired times, cells were fixed with 4% PFA and imaged using high-content microscopy (Operetta system, Perkin Elmer). Images were quantified using the manufacturer's software in a minimum of 1,200 cells in 9 independent fields per well. […] To avoid con-funding effects for drug-induced changes in cell volume or adherence to the plate that could bring a fraction of the cells per field outside of focus, we set a threshold to count only cells that have at least 1/10 of the average number of […] detected in the untreated wells for each cell type (3-4 puncta/cell in the case of NIH3T3 and N2a cells and 5 puncta/cell in primary human fibroblasts). […] Slices were mounted in DAPI-Fluoromount-G to highlight the cell nucleus and allow quantification of puncta per cell. Images were acquired in x-y-z planes with an Axiovert 200 fluorescence microscope (Carl Zeiss Ltd) with a ×63 objective and 1.4 numerical aperture, mounted with an ApoTome.2 slider or with a Confocal microscope (TCS SP5; Leica) using an HCX Plan Apo CS×63.0 1.40 NA oil objective and the Leica Application Suite X (LAS X).

A short description of data set [3]: In vitro stability in liver microsomes. Type of data set: in vitro ADME. The settings on record: human liver microsomes. The protocol:
In vitro solubility in the following conditions A) HBSS/HEPES 10 mM/BSA 0.1% pH 6 B) HBSS/HEPES 10 mM/BSA 0.1% pH 7.4 C) TRIS/BSA 0.1% PBS (pH 7.4 and at indicated doses were measured by Nephelometry using the NEPHELOstar Galaxy apparatus (BMG Lab Technologies). In vitro stability in human, mouse and rat liver microsomes and permeability using a bidirectional permeability assay with CaCo-2 cells (pH 6.5/7.4) assays were performed with standard methodology and analyzed by LC-MS/MS. at SIMM-SERVIER joint Biopharmacy Laboratory. In silico ADME properties calculated by QikProp (Schrodinger, LLC) analysis and ADME predictions for CA39 (left) and CA77 (right).
A general note: Liver microsomes are vesicles of endoplasmic reticulum, rich in cytochrome P450 enzymes.

Data set [4] has as its system NIH3T3 cells. Briefly: CMA activity, KFERQ-PS-Dendra reporter in NIH3T3 cells. Type of data set: cell-based, mouse. To be noted: for CMA activation after washout: 12 h after washing out the compounds from the media; for CMA activating effect upon knock-down of NCoR1: NCoR1 KD NIH3T3, 20 μM, 24 h; for CMA activation: increasing concentrations, 12 or 24 h, compared with AR7. How it is done: CMA activity: Cells were transduced with lentivirus carrying the KFERQ-PS-Dendra reporter as before. Cells were photoactivated by exposure to a 3.5 mA (current constant) light emitting diode (LED: Norlux, 405 nm) for 3 min and then plated in glass-bottom 96 well plates. At the desired times, cells were fixed with 4% PFA and imaged using high-content microscopy (Operetta system, Perkin Elmer). Images were quantified using the manufacturer's software in a minimum of 1,200 cells in 9 independent fields per well. […] This was particularly important in the case of primary human cells where efficiency of transduction was approximately 65%. To avoid con-funding effects for drug-induced changes in cell volume or adherence to the plate that could bring a fraction of the cells per field outside of focus, we set a threshold to count only cells that have at least 1/10 of the average number of […] detected in the untreated wells for each cell type (3-4 puncta/cell in the case of NIH3T3 and N2a cells and 5 puncta/cell in primary human fibroblasts). To measure CMA in the tissues from KFERQ-Dendra mice, the organs of interest were fixed for 12 h at 4° C. in picric acid fixation buffer (2% formaldehyde, 0.2% picric acid in PBS, pH7.0) and then washed with 70% ethanol, followed by two washes in PBS. Tissues were immersed in 30% sucrose and then embedded in OCT for sectioning in a cryostat (Leica CM3050 S). After airdrying for 30 min, sections were stored at −20° C. until use. Slices were mounted in DAPI-Fluoromount-G to highlight the cell nucleus and allow quantification of puncta per cell. Images were acquired in x-y-z planes with an Axiovert 200 fluorescence microscope (Carl Zeiss Ltd) with a ×63 objective and 1.4 numerical aperture, mounted with an ApoTome.2 slider or with a Confocal microscope (TCS SP5; Leica) using an HCX Plan Apo CS×63.0 1.40 NA oil objective and the Leica Application Suite X (LAS X).

Turning to `Clc1ccc2c(c1)OCC(c1ccc(-c3ccccc3)cc1)=N2` [CA39], the toxicity result in the data set on NIH3T3 cells [1] is “without noticeable toxicity”. In addition, in data set [2] (male, ICR (CD-1), mouse, plasma, intravenous, 1 mg/kg, route not printed (second pair of values), read-out: half-life in plasma (converted)), the half-life was 8.2 h. In addition, in data set [2], the “blood brain barrier crossing” value was “efficiently crossed the brain blood barrier” and the “brain to plasma ratio” value is reported as “high”. The half-life in brain in data set [2] (IV 1 mg/kg) is 8 h. In data set [2] (PO 30 mg/kg), this compound returned a half-life in brain of 10 h and a half-life in plasma of 7.5 h. In the data set with CMA network, the “predicted CMA activation score” value is “higher”. The CMA activation entry in the data set with neuron-related cells was “efficiently activate CMA”. Also, the metabolic stability result in data set [3] is recorded as “high to intermediate”. In the data set on NIH3T3 cells [4], the “CMA activation after washout” value is given as “activation was still noticeable”; the “CMA activating effect upon knock-down of NCoR1” value was “completely ablated the activating effect”; the CMA activation result is “activate CMA in a time and dose-dependent manner with higher potency than AR7”.
As to `CC(=O)Nc1ccc(C2=Nc3ccc(Cl)cc3OC2)cc1` [CA77], in the data set on NIH3T3 cells [1], the toxicity result is recorded as “without noticeable toxicity”. In data set [2], the “blood brain barrier crossing” value is listed as “efficiently crossed the brain blood barrier” and the “brain to plasma ratio” value is “high”. This compound also displayed a half-life in brain in data set [2] (IV 1 mg/kg) of 1.8 h. In data set [2] (PO 30 mg/kg), this compound showed a half-life in brain of 4.2 h and a half-life in plasma of 2.2 h. Besides, the “predicted CMA activation score” value in the data set on CMA network is on record as “higher”. For the same compound, the “CMA activation after removal of compound” value in the data set on neuron-related cells (compound removed from the media) is “persisted and even further increased after the compound was removed from the media”. For the same compound, the CMA activation result with neuron-related cells is reported as “efficiently activate CMA”. The metabolic stability result in data set [3] was “high to intermediate”. Besides, in the data set with NIH3T3 cells [4], the “CMA activation after washout” value is “activation was still noticeable”; the “CMA activating effect upon knock-down of NCoR1” value is “completely ablated the activating effect”; the CMA activation entry was “activate CMA in a time and dose-dependent manner with higher potency than AR7”.
